Laboratory results: US20110151474A1, “METHOD OF ESTIMATING THE RISK OF EXPRESSION OF ADVERSE DRUG REACTION CAUSED BY THE ADMINISTRATION OF A COMPOUND, WHICH IS EITHER METABOLIZED PER SE BY UGT1A1 ENZYME OR WHOSE METABOLIC INTERMEDIATE IS METABOLIZED BY THE ENZYME” (DAIICHI PURE CHEMICALS CO ., LTD, priority 2000, published 2011)

Key:
[1] = Retrospective review of adverse drug reaction (leukopenia, diarrhea, severe toxicity) in patients given irinotecan chemotherapy, correlated with UGT1A1 genotype; format: in vivo, Japanese patients; conditions: for odds ratio of severe toxicity: logistic regression
From the text: The subjects were Japanese patients who had received irinotecan administration in their chemotherapies from July 1994 to June 1999. For confirming the security of the patients, each patient was primarily ensured to have an adequate bone marrow function before the use of irinotecan: a leukocyte count of 3×10^9/liter or more, and a platelet count of 100×10^9/Iiter or more. In addition, the patients who had evidence of watery diarrhea, paralytic ileus, pulmonary interstitial pneumonia or fibrosis, massive ascites or pleural effusion, apparent jaundice, or anamnesis of hypersensitivity to irinotecan were excluded from the irinotecan use. As a result, 118 patients were used as a subject of this Example.
For confirming the adaptability to irinotecan, the complete blood count, platelet count and serum chemistry were assessed at least once a week. And bilirubin levels were always measured.
We retrospectively reviewed the clinical records including patients' characteristics (e.g. age, gender and the like), the dosage and schedule of irinotecan administration, the record of use of other drugs or radiotherapy, and observed adverse drug reaction caused by irinotecan (infusion). We counted the number of days when the patients received granulocyte colony stimulating factors (G-CSFs) or loperamide hydrochloride, the latter of which is commonly prescribed for irinotecan-induced diarrhea in Japan. Prophylactic administration of G-CSF prevented the apparent onset of neutropenia. Since the dose limiting toxicity of irinotecan is known to result in leukopenia and diarrhea, we defined as “severe toxicity” as leukopenia of grade 4 (0.9×10^9/liter) and the diarrhea of grade 3 or worse (grade 3 is for the watery diarrhea for 5 days or more; grade 4, the diarrhea with hemorrhagic or dehydration as classified in accordance with the Japan Society for Cancer Therapy criteria). No other adverse drug reactions were included in this example because they would be influenced by miscellaneous patients' backgrounds. The Serum total bilirubin levels were recorded with the scores just prior to irinotecan administration along with the highest of those after initiation of the therapy.
Blood was sampled from each patient (118 samples) and their genotypes were analyzed after irinotecan administration in each patient. […]
We analyzed the following variant sequences for each genomic DNA (see Fig. I): a two-extra-nucleotide (TA) insertion within the TATA box resulting in the sequence (TA)7TAA at positions −39 to −53, whose type is referred to as UGT1A1 *28; (Monaghan, G., Ryan, M., Seddon, R., Hume, R., and Burchell, B., Lancet, 347: 578-581, 1996, Bosma, P. J. et al., N. Engi. J. Med., 333: 1171-1175, 1995); a transition at codon 71 in exon I (from (G) to (A) at +211 locating in the downstream region from the initial site of the transcription) that changes glycine to arginine (represented by G71 R, whose type is referred to as UGT1A1*6); a transversion at codon 229 in exon I that alters proline to glutamine (represented by P229Q, whose type is referred to as UGT1A1*27); a trarisversion at codon 367 from (C) to (G) at position +1099 in exon 4 that converts arginine to glycine (represented by R367G, whose type is referred to as UGT1A1*29); and a transversion (+1456, T to G) at codon 486 in exon 5 that transforms tyrosine (Y) into aspartic acid (D) (represented by Y486D, whose type is referred to as UGTIA1*7). […]

[2] = out of 1245 patients during period of clinical trials; cited from earlier work

For CCc1c2c(nc3ccc(OC(=O)N4CCC(N5CCCCC5)CC4)cc13)-c1cc3c(c(=O)n1C2)COC(=O)[C@]3(O)CC [irinotecan], the “odds ratio of severe toxicity” value ([1]; UGT1A1*6, 95% CI 0.15-1.61, P>0.2) was 0.55, the “patients who experienced severe toxicity” value ([1]; all patients heterozygous for UGT1A1*27) was 3 patients and the “odds ratio of severe toxicity” value ([1]; genotype heterozygous or homozygous for UGT1A1*28, 95% CI 1.98-13.96, P<0.001) was 5.21. The “patients who experienced severe toxicity (leukopenia grade 4 and/or diarrhea grade 3 or worse)” value ([1]; of 118 patients given irinotecan, 92 did not) was 26 patients, the “increase of severe toxicity of irinotecan” value ([1]; possession of UGT1A1*28, multiple logistic regression with gender and chemotherapy regimen (FIG. 5)) was 7 fold and the “deaths attributed to adverse drug reactions” value [2] was 55 patients.
